Patent US20180193493A1, “RENAL IMAGING AGENT” (NIHON MEDI-PHYSICS CO., LTD., priority 2014, published 2018)

Tests used:
[1] = test system: CKD model animals (adriamycin-treated Lewis rats), kidneys excluding the renal pelvis; experiment: PET imaging (static, SUV) in CKD models; format: in vivo
Description: (§1) Adriamycin (from Wako Pure Chemical Industries, Ltd., 7.5 mg/kg) was administered to 13 Lewis rats (male, 8-week-old, available from Japan SLC, Inc.) via the tail vein, and urinary protein was measured in accordance with the Bradford method on day 13 after the administration, for 11 cases excluding two dead cases. Of these, four cases having a high urinary protein level were selected as CKD model animals, and used in the below-described examples on day 14 after the administration of adriamycin.
(§2) ^18F-HIC101 (radiochemical purity: 84.2%) was administered to the four CKD models prepared in Example 1 at 18.6±0.9 MBq/rat and to four healthy models at 17.0±2.7 MBq/rat, and after 80 minutes from the administration, static imaging was performed using a PET system for animals (eXplore Vista from GE). The collection conditions were 10 minutes at an energy window of 250 to 700 keV. The collected data were reconstructed and imaged using the 3D-OSEM method. From the images, the average of maximum values of SUV (standardized uptake value) of the kidneys (the region of interest (ROI) was set excluding the renal pelvis) and the average value of SUV of normal tissue in each slice were measured. Based on these values, the lesion-to-normal tissue ratio and the normal kidney-to-normal tissue ratio were used for evaluation. Student's t-test was used for statistical analysis of the measured results.
(§3) ^18F-FMISO (radiochemical purity: 96% or more) was administered to the four CKD models prepared in Example 1 at 18.7±1.1 MBq/rat and to four healthy models at 19.5±0.69 MBq/rat, and after 80 minutes from the administration, static imaging was performed using a PET system for animals (eXplore Vista from GE). One case each from each of the groups was placed under anesthesia again after the PET imaging, and imaging was performed after 180 minutes from the administration. The collection conditions were 10 minutes at an energy window of 250 to 700 keV, and the collected data were reconstructed and imaged using the 3D-OSEM method. From the images, the average of maximum values of SUV of the kidneys (the region of interest (ROI) was set excluding the renal pelvis) and the average value of SUV of normal tissue in each slice were measured. Based on these values, the lesion-to-normal tissue ratio and the normal kidney-to-normal tissue ratio were used for evaluation. Student's t-test was used for statistical analysis of the measured results.

[2] = test system: healthy models (physiological saline-treated Lewis rats), kidneys excluding the renal pelvis; experiment: PET imaging (static, SUV) in healthy models; format: in vivo
Description: (§4) As healthy models, four cases prepared by administering an equivalent amount of physiological saline instead of adriamycin were used.
as §2, §3

[3] = test system: CKD model animals (adriamycin-treated Lewis rats); experiment: Experiment of in vivo distribution in CKD models; details: 100 minutes after administration
Description: as §1
(§5) After the completion of the PET imaging in Example 2, these rats were placed under anesthesia until 100 minutes after the administration, and were sacrificed by exsanguination. Then, the left and right kidneys, blood, brain, lung, heart, liver, spleen, stomach, small intestine, large intestine, adrenal gland, muscles, bones, fat around the kidneys, urine, and the remaining whole body were extracted, and weights and amounts of radioactivity were measured. Student's t-test was used for statistical analysis of the results.
as §5, with “Three cases from each of” for “After”, “groups that underwent” for “completion of”, “imaging after 80 minutes from the administration” for “imaging”, “5, as well as one case from each of the groups that had not undergone PET imaging,” for “2, these rats”

[4] = test system: healthy models (physiological saline-treated Lewis rats); experiment: Experiment of in vivo distribution in healthy models; details: healthy model; 100 minutes after administration
Description: as §4, §5
as §5, with “Three cases from each of” for “After”, “groups that underwent” for “completion of”, “imaging after 80 minutes from the administration” for “imaging”, “5, as well as one case from each of the groups that had not undergone PET imaging,” for “2, these rats”

[5] = CKD model group, PET after 80 min from administration
[6] = CKD model group, PET after 80 min from administration, ROI excluding renal pelvis
[7] = CKD model, one case, PET after 180 min from administration
[8] = healthy model group, PET after 80 min from administration
[9] = healthy model group, PET after 80 min from administration, ROI excluding renal pelvis
[10] = healthy model, one case, PET after 180 min from administration

Structure (SMILES): O=[N+]([O-])c1nccn1CC(O)C[18F] (stereo not shown) [^18F-FMISO, 1-[^18F]fluoro-3-(2-nitro-1H-imidazol-1-yl)-2-propanol]
- Normal Tissue SUV Average Value [1, 5]: 0.94 ± 0.11
- Renal Tissue (Lesion or Normal)-to-Normal Tissue Ratio, Left [1, 5]: 2.11 ± 0.14
- Renal Tissue (Lesion or Normal)-to-Normal Tissue Ratio, Right [1, 5]: 2.22 ± 0.10
- Renal Tissue SUV Maximum Value, Left [1, 5]: 1.97 ± 0.15
- Renal Tissue SUV Maximum Value, Right [1, 6]: 2.08 ± 0.22
- Normal Tissue SUV Average Value [1, 7]: 0.87
- Renal Tissue (Lesion or Normal)-to-Normal Tissue Ratio, Left [1, 7]: 3.17
- Renal Tissue (Lesion or Normal)-to-Normal Tissue Ratio, Right [1, 7]: 2.87
- Renal Tissue SUV Maximum Value, Left [1, 7]: 2.77
- Renal Tissue SUV Maximum Value, Right [1, 7]: 2.51
- Uptake in renal cortex versus renal pelvis ([1]; PET images after 180 minutes compared with after 80 minutes from administration): a tendency toward a higher uptake in the renal cortex than in the renal pelvis
- Change of SUV maximum value (ROI analysis) ([1]; after 180 minutes versus after 80 minutes from administration): a tendency for the SUV maximum value to increase more than that after 80 minutes from the administration
- Uptake into renal tissue excluding the renal pelvis, CKD models versus healthy models ([1]; summary of Examples 2 to 6): uptaken into the renal tissue excluding the renal pelvis in the CKD models significantly, compared with the healthy models
- Normal Tissue SUV Average Value [2, 8]: 0.89 ± 0.03
- Renal Tissue (Lesion or Normal)-to-Normal Tissue Ratio, Left [2, 8]: 1.95 ± 0.05
- Renal Tissue (Lesion or Normal)-to-Normal Tissue Ratio, Right [2, 8]: 1.89 ± 0.13
- Renal Tissue SUV Maximum Value, Left [2, 8]: 1.74 ± 0.08
- Renal Tissue SUV Maximum Value, Right [2, 9]: 1.68 ± 0.14
- Normal Tissue SUV Average Value [2, 10]: 0.72
- Renal Tissue (Lesion or Normal)-to-Normal Tissue Ratio, Left [2, 10]: 2.31
- Renal Tissue (Lesion or Normal)-to-Normal Tissue Ratio, Right [2, 10]: 2.26
- Renal Tissue SUV Maximum Value, Left [2, 10]: 1.67
- Renal Tissue SUV Maximum Value, Right [2, 10]: 1.63
- In vivo distribution (radioactivity uptake), Blood [3]: 0.44 ± 0.02
- In vivo distribution (radioactivity uptake), Heart [3]: 0.53 ± 0.01
- In vivo distribution (radioactivity uptake), Kidney (Left) [3]: 1.08 ± 0.28
- In vivo distribution (radioactivity uptake), Kidney (Right) [3]: 1.09 ± 0.29
- In vivo distribution (radioactivity uptake), Large Intestine [3]: 1.14 ± 0.10
- In vivo distribution (radioactivity uptake), Liver [3]: 0.89 ± 0.28
- In vivo distribution (radioactivity uptake), Lung [3]: 0.48 ± 0.02
- In vivo distribution (radioactivity uptake), Muscles [3]: 0.47 ± 0.02
- In vivo distribution (radioactivity uptake), Small Intestine [3]: 1.54 ± 0.67
- In vivo distribution (radioactivity), Urine [3]: 2.60 ± 2.16 % ID
- In vivo distribution (radioactivity uptake), Blood [4]: 0.30 ± 0.02
- In vivo distribution (radioactivity uptake), Heart [4]: 0.34 ± 0.02
- In vivo distribution (radioactivity uptake), Kidney (Left) [4]: 0.53 ± 0.03
- In vivo distribution (radioactivity uptake), Kidney (Right) [4]: 0.55 ± 0.03
- In vivo distribution (radioactivity uptake), Large Intestine [4]: 1.52 ± 0.15
- In vivo distribution (radioactivity uptake), Liver [4]: 0.50 ± 0.04
- In vivo distribution (radioactivity uptake), Lung [4]: 0.31 ± 0.02
- In vivo distribution (radioactivity uptake), Muscles [4]: 0.30 ± 0.02
- In vivo distribution (radioactivity uptake), Small Intestine [4]: 0.74 ± 0.11
- In vivo distribution (radioactivity), Urine [4]: 9.50 ± 1.75 % ID

Structure (SMILES): O=[N+]([O-])c1nccn1CC(CO)(CO)C[18F] [^18F-HIC101, 2-[^18F]fluoromethyl-2-((2-nitro-1H-imidazol-1-yl)methyl)-1,3-propanediol]
- Normal Tissue SUV Average Value [1, 5]: 0.46 ± 0.04^$
- Renal Tissue (Lesion or Normal)-to-Normal Tissue Ratio, Left [1, 5]: 11.59 ± 1.88
- Renal Tissue (Lesion or Normal)-to-Normal Tissue Ratio, Right [1, 5]: 11.33 ± 1.57
- Renal Tissue SUV Maximum Value, Left [1, 5]: 5.25 ± 0.55
- Renal Tissue SUV Maximum Value, Right [1, 6]: 5.17 ± 0.70
- SUV maximum value of renal tissue in the example shown in FIG. 1 ([1]; MIP PET image of FIG. 1, after 80 minutes from administration): 10
- SUV maximum value of the CKD model examined for HIF-1α expression, (left) ([1]; individual CKD model of FIG. 3, (left)): 4.30
- SUV maximum value of the CKD model examined for HIF-1α expression, (right) ([1]; individual CKD model of FIG. 3, (right)): 5.12
- Comparison of uptake in the CKD models between the two agents ([1]; summary of Examples 2 to 6): higher than the uptake of ^18F-FMISO
- Uptake into renal tissue excluding the renal pelvis, CKD models versus healthy models ([1]; summary of Examples 2 to 6): uptaken into the renal tissue excluding the renal pelvis in the CKD models significantly, compared with the healthy models
- Normal Tissue SUV Average Value [2, 8]: 0.37 ± 0.06
- Renal Tissue (Lesion or Normal)-to-Normal Tissue Ratio, Left [2, 8]: 3.69 ± 0.37
- Renal Tissue (Lesion or Normal)-to-Normal Tissue Ratio, Right [2, 8]: 3.77 ± 0.66
- Renal Tissue SUV Maximum Value, Left [2, 8]: 1.37 ± 0.28
- Renal Tissue SUV Maximum Value, Right [2, 9]: 1.42 ± 0.43
- SUV maximum value of the healthy model examined for HIF-1α expression ([2]; individual healthy model of FIG. 3): 1.06
- In vivo distribution (radioactivity uptake), Blood [3]: 0.16 ± 0.04
- In vivo distribution (radioactivity uptake), Heart [3]: 0.18 ± 0.04
- In vivo distribution (radioactivity uptake), Kidney (Left) [3]: 2.11 ± 0.44
- In vivo distribution (radioactivity uptake), Kidney (Right) [3]: 2.60 ± 0.58
- In vivo distribution (radioactivity uptake), Large Intestine [3]: 3.17 ± 0.08
- In vivo distribution (radioactivity uptake), Liver [3]: 0.34 ± 0.05
- In vivo distribution (radioactivity uptake), Lung [3]: 0.18 ± 0.05
- In vivo distribution (radioactivity uptake), Muscles [3]: 0.26 ± 0.04
- In vivo distribution (radioactivity uptake), Small Intestine [3]: 0.25 ± 0.82
- In vivo distribution (radioactivity), Urine [3]: 29.9 ± 14.9 % ID
- In vivo distribution (radioactivity uptake), Blood [4]: 0.08 ± 0.03
- In vivo distribution (radioactivity uptake), Heart [4]: 0.09 ± 0.03
- In vivo distribution (radioactivity uptake), Kidney (Left) [4]: 1.17 ± 0.61
- In vivo distribution (radioactivity uptake), Kidney (Right) [4]: 1.01 ± 0.24
- In vivo distribution (radioactivity uptake), Large Intestine [4]: 0.32 ± 0.44
- In vivo distribution (radioactivity uptake), Liver [4]: 0.23 ± 0.06
- In vivo distribution (radioactivity uptake), Lung [4]: 0.08 ± 0.03
- In vivo distribution (radioactivity uptake), Muscles [4]: 0.09 ± 0.03
- In vivo distribution (radioactivity uptake), Small Intestine [4]: 4.50 ± 0.70
- In vivo distribution (radioactivity), Urine [4]: 34.4 ± 23.3 % ID
